The kinase profiling compilation of Christmann-Franck et al. (2016)

Legend:
Experiment in all cases: radiometric filter-binding kinase assay, Kinase HotSpot
Conditions in all cases: compound 0.5 µM; ATP 10 µM
[1] = target: ACVR1B (human) (UniProt P36896)
[2] = target: ACVRL1 (human) (UniProt P37023)
[3] = target: ALK (human) (UniProt Q9UM73)
[4] = target: AURKC (human) (UniProt Q9UQB9)
[5] = target: CAMK1D (human) (UniProt Q8IU85)
[6] = target: CDC42BPB (human) (UniProt Q9Y5S2)
[7] = target: CSNK1A1 (human) (UniProt P48729)
[8] = target: CSNK1E (human) (UniProt P49674)
[9] = target: DAPK2 (human) (UniProt Q9UIK4)
[10] = target: EGFR (human) (UniProt P00533)
[11] = target: EPHA1 (human) (UniProt P21709)
[12] = target: FER (human) (UniProt P16591)
[13] = target: FES (human) (UniProt P07332)
[14] = target: FGFR4 (human) (UniProt P22455)
[15] = target: HIPK4 (human) (UniProt Q8NE63)
[16] = target: KIT (human) (UniProt P10721)
[17] = target: LRRK2 (human) (UniProt Q5S007)
[18] = target: MAP3K10 (human) (UniProt Q02779)
[19] = target: MAP3K2 (human) (UniProt Q9Y2U5)
[20] = target: MAP3K5 (human) (UniProt Q99683)
[21] = target: MATK (human) (UniProt P42679)
[22] = target: MERTK (human) (UniProt Q12866)
[23] = target: MET (human) (UniProt P08581)
[24] = target: NEK11 (human) (UniProt Q8NG66)
[25] = target: NLK (human) (UniProt Q9UBE8)
[26] = target: PAK2 (human) (UniProt Q13177)
[27] = target: PDPK1 (human) (UniProt O15530)
[28] = target: PIM1 (human) (UniProt P11309)
[29] = target: PLK1 (human) (UniProt P53350)
[30] = target: RAF1 (human) (UniProt P04049)
[31] = target: RET (human) (UniProt P07949)
[32] = target: ROCK2 (human) (UniProt O75116)
[33] = target: ROS1 (human) (UniProt P08922)
[34] = target: RPS6KB2 (human) (UniProt Q9UBS0)
[35] = target: SLK (human) (UniProt Q9H2G2)
[36] = target: SRPK2 (human) (UniProt P78362)
[37] = target: TGFBR2 (human) (UniProt P37173)
[38] = target: TNK2 (human) (UniProt Q07912)
[39] = target: TYK2 JH1 catalytic (human) (UniProt P29597)
[40] = target: WNK2 (human) (UniProt Q9Y3S1)
[41] = target: ZAP70 (human) (UniProt P43403)
[42] = target: NTRK2 (human) (UniProt Q16620)

Sequence of RPS6KB2 (human) (Q9UBS0 whole entry, looked up): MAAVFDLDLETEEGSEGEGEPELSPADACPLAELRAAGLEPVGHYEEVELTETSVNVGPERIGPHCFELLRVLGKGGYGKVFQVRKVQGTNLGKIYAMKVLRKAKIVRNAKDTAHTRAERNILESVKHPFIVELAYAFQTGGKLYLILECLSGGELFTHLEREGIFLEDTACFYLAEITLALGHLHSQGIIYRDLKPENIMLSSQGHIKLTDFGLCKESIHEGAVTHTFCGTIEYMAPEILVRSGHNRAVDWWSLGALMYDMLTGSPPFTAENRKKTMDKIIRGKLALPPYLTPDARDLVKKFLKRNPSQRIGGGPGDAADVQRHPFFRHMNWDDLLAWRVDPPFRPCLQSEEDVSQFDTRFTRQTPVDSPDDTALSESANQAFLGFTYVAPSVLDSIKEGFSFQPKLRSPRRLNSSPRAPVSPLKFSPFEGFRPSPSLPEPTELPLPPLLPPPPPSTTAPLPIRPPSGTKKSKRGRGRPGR
Sequence of TYK2 JH1 catalytic (human) (P29597 whole entry, looked up): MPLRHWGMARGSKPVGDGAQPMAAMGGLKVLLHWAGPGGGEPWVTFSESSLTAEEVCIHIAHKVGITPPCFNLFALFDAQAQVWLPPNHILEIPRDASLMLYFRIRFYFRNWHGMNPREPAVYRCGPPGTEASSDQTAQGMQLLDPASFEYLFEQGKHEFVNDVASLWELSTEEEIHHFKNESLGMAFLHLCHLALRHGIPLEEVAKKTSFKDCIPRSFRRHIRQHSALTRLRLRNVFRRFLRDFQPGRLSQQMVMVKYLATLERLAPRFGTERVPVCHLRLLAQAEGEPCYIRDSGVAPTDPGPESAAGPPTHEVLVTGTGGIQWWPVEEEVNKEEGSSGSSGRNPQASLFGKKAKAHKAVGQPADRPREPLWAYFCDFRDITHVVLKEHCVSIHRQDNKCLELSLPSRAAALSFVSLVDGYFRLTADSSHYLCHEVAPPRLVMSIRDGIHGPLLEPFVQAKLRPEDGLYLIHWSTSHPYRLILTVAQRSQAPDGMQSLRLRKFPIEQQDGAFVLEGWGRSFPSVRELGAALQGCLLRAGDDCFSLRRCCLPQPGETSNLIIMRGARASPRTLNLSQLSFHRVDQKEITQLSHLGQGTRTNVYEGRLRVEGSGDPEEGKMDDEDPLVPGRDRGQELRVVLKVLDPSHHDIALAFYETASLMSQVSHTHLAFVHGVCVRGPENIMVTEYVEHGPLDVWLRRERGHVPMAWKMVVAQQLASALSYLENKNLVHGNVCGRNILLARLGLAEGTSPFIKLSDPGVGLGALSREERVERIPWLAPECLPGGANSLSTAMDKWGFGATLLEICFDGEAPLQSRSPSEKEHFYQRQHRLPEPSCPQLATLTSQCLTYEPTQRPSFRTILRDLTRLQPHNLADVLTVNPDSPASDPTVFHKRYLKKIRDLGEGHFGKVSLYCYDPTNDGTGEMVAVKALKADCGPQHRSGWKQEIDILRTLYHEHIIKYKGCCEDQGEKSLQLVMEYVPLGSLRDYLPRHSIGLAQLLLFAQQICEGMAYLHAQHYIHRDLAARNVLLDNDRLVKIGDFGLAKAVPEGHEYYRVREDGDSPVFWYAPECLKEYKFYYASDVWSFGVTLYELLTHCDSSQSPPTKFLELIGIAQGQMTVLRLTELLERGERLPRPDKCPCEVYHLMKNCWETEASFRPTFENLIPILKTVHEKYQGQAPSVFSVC
Sequence of CSNK1A1 (human) (P48729 whole entry, looked up): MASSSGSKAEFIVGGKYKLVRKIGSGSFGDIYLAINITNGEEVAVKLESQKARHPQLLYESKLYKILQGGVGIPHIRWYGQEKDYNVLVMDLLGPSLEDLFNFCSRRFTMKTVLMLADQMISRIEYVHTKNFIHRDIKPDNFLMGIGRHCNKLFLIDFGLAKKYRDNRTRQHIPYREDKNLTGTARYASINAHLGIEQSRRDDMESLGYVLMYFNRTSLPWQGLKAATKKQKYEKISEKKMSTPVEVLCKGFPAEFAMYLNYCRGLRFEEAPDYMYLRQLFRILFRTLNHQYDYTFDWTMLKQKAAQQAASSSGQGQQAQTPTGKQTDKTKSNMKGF
Sequence of ALK (human) (Q9UM73 whole entry, looked up): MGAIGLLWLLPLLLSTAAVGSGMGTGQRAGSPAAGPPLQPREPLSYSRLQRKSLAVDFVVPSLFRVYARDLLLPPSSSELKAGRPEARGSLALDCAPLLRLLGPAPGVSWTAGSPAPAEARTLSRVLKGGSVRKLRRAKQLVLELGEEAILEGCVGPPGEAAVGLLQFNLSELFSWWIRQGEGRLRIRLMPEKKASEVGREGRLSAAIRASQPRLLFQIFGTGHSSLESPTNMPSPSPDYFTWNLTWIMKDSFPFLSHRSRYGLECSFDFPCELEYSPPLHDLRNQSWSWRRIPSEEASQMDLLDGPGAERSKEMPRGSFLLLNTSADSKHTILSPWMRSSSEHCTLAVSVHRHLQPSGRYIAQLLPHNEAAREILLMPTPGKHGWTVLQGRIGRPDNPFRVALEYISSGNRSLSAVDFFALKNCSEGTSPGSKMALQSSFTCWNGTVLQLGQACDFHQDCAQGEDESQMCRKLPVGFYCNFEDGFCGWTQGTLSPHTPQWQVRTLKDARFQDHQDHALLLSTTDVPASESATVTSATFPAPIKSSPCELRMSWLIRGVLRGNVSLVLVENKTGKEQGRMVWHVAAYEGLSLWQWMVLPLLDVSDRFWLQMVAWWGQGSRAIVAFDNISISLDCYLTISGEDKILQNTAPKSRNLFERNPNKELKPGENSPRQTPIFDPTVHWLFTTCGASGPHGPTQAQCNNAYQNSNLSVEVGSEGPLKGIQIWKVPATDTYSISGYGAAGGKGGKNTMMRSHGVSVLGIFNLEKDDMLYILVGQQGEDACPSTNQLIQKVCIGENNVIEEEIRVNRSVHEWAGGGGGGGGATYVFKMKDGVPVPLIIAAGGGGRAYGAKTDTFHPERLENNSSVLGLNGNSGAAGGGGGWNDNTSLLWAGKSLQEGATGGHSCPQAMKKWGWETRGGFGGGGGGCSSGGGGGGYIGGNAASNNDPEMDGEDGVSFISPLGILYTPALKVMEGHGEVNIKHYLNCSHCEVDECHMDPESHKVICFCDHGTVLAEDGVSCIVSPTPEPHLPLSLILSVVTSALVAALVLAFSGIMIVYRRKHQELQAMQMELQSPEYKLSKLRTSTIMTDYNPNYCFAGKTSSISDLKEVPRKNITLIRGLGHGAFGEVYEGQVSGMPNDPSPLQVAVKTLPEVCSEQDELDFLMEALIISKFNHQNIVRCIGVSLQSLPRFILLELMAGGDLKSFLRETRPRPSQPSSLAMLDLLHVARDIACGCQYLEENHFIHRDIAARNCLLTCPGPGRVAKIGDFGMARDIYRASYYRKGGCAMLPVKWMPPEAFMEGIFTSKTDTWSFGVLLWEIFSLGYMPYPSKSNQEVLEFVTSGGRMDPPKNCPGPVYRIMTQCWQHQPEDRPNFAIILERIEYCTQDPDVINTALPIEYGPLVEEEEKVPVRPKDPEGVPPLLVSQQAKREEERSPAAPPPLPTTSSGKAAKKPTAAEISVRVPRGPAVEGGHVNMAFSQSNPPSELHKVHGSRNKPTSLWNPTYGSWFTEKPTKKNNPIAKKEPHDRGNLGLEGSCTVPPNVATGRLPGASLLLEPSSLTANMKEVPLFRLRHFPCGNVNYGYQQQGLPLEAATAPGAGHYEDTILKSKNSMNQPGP
Sequence of ACVR1B (human) (P36896 whole entry, looked up): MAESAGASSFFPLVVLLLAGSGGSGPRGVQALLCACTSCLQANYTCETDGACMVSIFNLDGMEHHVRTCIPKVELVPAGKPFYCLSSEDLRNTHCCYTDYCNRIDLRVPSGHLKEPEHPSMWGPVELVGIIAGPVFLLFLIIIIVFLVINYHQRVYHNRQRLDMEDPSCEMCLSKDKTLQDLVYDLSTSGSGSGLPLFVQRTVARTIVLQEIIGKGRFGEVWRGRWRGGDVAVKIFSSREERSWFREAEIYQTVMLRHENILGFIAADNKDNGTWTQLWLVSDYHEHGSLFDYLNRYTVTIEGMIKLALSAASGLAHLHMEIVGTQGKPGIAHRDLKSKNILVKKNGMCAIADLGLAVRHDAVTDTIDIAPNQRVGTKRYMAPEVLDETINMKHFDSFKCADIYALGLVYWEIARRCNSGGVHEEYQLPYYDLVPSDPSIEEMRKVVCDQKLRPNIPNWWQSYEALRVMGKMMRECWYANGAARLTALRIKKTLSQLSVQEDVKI
Sequence of RAF1 (human) (P04049 whole entry, looked up): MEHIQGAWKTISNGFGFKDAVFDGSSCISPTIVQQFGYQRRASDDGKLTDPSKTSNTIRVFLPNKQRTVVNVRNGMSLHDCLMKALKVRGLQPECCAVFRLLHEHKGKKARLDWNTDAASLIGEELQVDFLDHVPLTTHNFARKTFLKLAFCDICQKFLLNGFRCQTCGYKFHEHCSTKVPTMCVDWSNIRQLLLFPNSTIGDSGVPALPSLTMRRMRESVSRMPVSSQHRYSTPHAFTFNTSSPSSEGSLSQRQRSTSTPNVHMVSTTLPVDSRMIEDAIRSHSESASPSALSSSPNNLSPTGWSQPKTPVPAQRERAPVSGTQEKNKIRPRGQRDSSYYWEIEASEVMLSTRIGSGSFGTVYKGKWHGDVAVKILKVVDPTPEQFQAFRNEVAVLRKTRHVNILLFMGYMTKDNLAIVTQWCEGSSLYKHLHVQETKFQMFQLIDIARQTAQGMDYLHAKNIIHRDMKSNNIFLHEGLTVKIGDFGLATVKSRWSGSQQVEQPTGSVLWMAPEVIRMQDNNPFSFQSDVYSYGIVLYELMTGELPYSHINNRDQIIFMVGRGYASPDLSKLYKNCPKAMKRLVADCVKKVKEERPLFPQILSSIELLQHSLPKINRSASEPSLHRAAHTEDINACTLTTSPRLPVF

Cn1sc(=O)n(Cc2ccccc2)c1=O
residual activity [1]: 103% | residual activity [2]: 117% | residual activity [3]: 94.1% | residual activity [4]: 98.8% | residual activity [5]: 97.1% | residual activity [6]: 96.4% | residual activity [7]: 99.5% | residual activity [8]: 100% | residual activity [9]: 94% | residual activity [10]: 105% | residual activity [11]: 106% | residual activity [12]: 101% | residual activity [13]: 101% | residual activity [14]: 97.2% | residual activity [15]: 98.2% | residual activity [16]: 101% | residual activity [17]: 91.9% | residual activity [18]: 99.5% | residual activity [19]: 94.7% | residual activity [20]: 91.5% | residual activity [21]: 95.3% | residual activity [22]: 92.8% | residual activity [23]: 64.2% | residual activity [24]: 102% | residual activity [25]: 105% | residual activity [26]: 104% | residual activity [27]: 95.5% | residual activity [28]: 93% | residual activity [29]: 97.2% | residual activity [30]: 97.2% | residual activity [31]: 106% | residual activity [32]: 88.8% | residual activity [33]: 103% | residual activity [34]: 101% | residual activity [35]: 84.7% | residual activity [36]: 98.1% | residual activity [37]: 123% | residual activity [38]: 101% | residual activity [39]: 96% | residual activity [40]: 99.1% | residual activity [41]: 102%

COc1ccc(CNC(=O)Nc2ncc([N+](=O)[O-])s2)cc1
residual activity [1]: 102% | residual activity [2]: 106% | residual activity [3]: 100% | residual activity [4]: 98.4% | residual activity [5]: 112% | residual activity [6]: 93.5% | residual activity [7]: 92.4% | residual activity [8]: 102% | residual activity [9]: 93.3% | residual activity [11]: 107% | residual activity [12]: 101% | residual activity [13]: 97.7% | residual activity [14]: 98.9% | residual activity [15]: 103% | residual activity [16]: 103% | residual activity [17]: 87.7% | residual activity [18]: 97.9% | residual activity [19]: 94.1% | residual activity [20]: 87.8% | residual activity [21]: 96.6% | residual activity [22]: 91.1% | residual activity [23]: 85.5% | residual activity [24]: 104% | residual activity [25]: 102% | residual activity [42]: 85.6% | residual activity [26]: 102% | residual activity [27]: 90% | residual activity [28]: 104% | residual activity [29]: 102% | residual activity [30]: 94% | residual activity [31]: 97.9% | residual activity [32]: 99.8% | residual activity [33]: 100% | residual activity [34]: 93.6% | residual activity [35]: 88.9% | residual activity [36]: 99.6% | residual activity [37]: 117% | residual activity [38]: 96.8% | residual activity [39]: 108% | residual activity [40]: 104% | residual activity [41]: 102%
